23 compounds from patent US11279707B2, “NEK inhibitors and methods of use” (DANA-FARBER CANCER INSTITUTE, INC., priority 2017, dated 2022) can be followed below.

pIC50: −log10 of the molar value.

Common to all, as to assay type: biochemical
In one experiment the target is T1, DMPK (Homo sapiens, UniProt Q09013).
T1 sequence (Q09013 1-629): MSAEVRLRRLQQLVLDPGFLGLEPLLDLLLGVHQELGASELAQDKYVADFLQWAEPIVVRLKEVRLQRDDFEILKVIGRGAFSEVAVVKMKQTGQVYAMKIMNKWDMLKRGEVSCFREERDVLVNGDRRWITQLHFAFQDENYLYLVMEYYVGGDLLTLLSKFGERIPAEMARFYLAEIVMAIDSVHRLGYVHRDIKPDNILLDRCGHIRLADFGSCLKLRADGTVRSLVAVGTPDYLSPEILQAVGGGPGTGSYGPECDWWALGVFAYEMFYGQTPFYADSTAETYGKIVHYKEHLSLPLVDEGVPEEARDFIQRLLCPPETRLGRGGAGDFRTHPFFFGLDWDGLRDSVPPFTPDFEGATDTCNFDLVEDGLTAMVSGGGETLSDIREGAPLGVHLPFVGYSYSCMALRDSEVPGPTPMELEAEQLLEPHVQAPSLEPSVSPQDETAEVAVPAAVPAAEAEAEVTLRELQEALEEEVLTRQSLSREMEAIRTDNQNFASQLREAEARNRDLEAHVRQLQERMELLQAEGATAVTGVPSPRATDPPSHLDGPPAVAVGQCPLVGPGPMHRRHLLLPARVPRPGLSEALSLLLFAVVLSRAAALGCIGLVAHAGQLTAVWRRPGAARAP
The experiment in a line: kinase inhibition, DMPK.

The next experiment concerns the target T2, NEK9 (Homo sapiens, UniProt Q8TD19).
T2 sequence (Q8TD19 1-979): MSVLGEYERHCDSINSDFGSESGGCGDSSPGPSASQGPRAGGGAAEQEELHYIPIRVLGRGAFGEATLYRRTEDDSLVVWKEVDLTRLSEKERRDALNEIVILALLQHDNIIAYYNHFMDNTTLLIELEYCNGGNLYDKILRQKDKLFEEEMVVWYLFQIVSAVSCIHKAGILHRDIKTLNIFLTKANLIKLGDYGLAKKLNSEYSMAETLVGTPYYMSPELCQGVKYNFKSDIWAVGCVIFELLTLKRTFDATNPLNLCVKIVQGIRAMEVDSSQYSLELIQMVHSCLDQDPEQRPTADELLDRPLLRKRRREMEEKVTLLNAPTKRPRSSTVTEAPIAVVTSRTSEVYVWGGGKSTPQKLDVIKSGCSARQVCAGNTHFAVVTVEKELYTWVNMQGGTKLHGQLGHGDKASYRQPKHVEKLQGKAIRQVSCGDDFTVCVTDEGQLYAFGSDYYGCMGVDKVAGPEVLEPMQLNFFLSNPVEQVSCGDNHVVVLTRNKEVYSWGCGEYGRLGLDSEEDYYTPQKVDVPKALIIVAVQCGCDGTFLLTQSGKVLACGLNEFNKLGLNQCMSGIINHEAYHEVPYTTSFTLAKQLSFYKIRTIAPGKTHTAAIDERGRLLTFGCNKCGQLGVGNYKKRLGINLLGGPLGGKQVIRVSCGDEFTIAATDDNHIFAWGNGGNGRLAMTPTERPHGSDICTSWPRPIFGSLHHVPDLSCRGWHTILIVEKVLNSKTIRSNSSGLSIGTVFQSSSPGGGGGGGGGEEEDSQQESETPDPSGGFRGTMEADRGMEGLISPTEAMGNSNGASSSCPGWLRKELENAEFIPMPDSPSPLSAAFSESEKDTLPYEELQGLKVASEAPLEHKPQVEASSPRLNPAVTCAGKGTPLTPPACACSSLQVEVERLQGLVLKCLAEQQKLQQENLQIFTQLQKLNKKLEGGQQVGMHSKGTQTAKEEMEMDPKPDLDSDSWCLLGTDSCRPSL
The experiment in a line: kinase inhibition, NEK9.

Another experiment deals with CLK. In words: kinase inhibition, CLK.
A further experiment deals with NEK6 (Homo sapiens, UniProt Q9HC98). The experiment in a line: kinase inhibition, NEK6.
In the next experiment the target is NEK7 (Homo sapiens, UniProt Q8TDX7). In words: kinase inhibition, NEK7.
The target in another experiment is T3, NEK2 (Homo sapiens, UniProt P51955).
T3 sequence (P51955 1-445): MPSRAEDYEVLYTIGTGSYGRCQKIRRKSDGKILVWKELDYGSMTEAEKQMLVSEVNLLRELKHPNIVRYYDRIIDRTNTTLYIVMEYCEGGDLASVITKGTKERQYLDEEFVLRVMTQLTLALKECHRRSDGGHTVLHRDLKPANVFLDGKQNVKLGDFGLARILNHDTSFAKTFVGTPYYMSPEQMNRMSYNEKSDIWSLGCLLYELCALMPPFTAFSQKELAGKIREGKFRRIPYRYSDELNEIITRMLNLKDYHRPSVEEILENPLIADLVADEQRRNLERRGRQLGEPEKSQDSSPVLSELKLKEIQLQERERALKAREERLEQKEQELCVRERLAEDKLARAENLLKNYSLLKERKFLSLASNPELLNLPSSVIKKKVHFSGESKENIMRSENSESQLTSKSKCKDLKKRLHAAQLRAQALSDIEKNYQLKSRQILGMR
The experiment in a line: kinase inhibition, NEK2.

NEK7, sequence (Q8TDX7 whole entry, species assumed): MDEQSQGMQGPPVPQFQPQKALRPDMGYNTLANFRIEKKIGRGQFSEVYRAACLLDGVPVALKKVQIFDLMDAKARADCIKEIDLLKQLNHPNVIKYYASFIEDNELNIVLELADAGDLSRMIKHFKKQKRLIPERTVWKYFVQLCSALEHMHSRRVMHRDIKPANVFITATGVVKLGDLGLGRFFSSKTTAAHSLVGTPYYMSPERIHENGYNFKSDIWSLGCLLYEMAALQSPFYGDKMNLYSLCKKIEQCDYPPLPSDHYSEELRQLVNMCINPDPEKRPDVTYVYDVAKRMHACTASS
NEK6, sequence (Q9HC98 whole entry, species assumed): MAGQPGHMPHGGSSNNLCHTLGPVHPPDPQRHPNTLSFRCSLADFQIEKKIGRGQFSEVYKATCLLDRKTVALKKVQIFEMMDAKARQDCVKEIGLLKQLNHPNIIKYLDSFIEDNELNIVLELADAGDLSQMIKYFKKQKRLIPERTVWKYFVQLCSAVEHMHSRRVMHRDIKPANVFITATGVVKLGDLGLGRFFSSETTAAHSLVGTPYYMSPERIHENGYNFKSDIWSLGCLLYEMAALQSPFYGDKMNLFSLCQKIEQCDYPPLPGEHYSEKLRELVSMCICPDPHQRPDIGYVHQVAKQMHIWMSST

The pIC50 is the negative decadic logarithm of the IC50, by convention in mol/L. A high value points to a low IC50. For the compound `COc1cc(N2CCC(N3CCN(C)CC3)CC2)ccc1Nc1ncc2c(n1)n1c(cc3ccccc31)c(=O)n2C` [Compound I-9], the pIC50 against DMPK was 5.30 to 6.00; against NEK9, ≥ 7.30; on CLK, 6.00 to 6.60; against NEK6, 6.00 to 6.60; against NEK7, 6.00 to 6.60; at NEK2 it was 6.60 to 7.30.
Take `Cn1c(=O)c2cc3ccccc3n2c2nc(Nc3cnn(CCN4CCOCC4)c3)ncc21` [Compound I-10]: the pIC50 on DMPK was 6.00 to 6.60; against NEK9 it was 6.60 to 7.30; against CLK, 5.30 to 6.00; at NEK6, ≤ 5.30; on NEK7, 5.30 to 6.00; against NEK2, 6.60 to 7.30.
Turning to `Cn1c(=O)c2cc3ccccc3n2c2nc(Nc3cnn(CC(F)F)c3)ncc21` [Compound I-11], the pIC50 at DMPK was 5.30 to 6.00; against NEK9, 6.60 to 7.30; against CLK it was ≤ 5.30; on NEK6, ≤ 5.30; against NEK7, 5.30 to 6.00; against NEK2, 6.00 to 6.60.
With `COc1cc(C(=O)N2CCN(C)CC2)ccc1Nc1ncc2c(n1)n1c(cc3ccccc31)c(=O)n2C` [Compound I-12], the pIC50 on DMPK is 5.30 to 6.00; at NEK9, 5.30 to 6.00; at CLK it was 6.00 to 6.60; against NEK6, 5.30 to 6.00; against NEK7, 5.30 to 6.00; at NEK2, 6.60 to 7.30.
For the compound `CN1CCN(c2ccc(Nc3ncc4c(n3)n3c(cc5ccccc53)c(=O)n4C)c(C(F)(F)F)c2)CC1` [Compound I-13], the pIC50 against DMPK was ≤ 5.30; against NEK9 it was 5.30 to 6.00; against CLK it was ≤ 5.30; against NEK6, 5.30 to 6.00; at NEK7, 6.00 to 6.60; on NEK2, 6.60 to 7.30.
As for `COc1cc(C(=O)N2CCOCC2)ccc1Nc1ncc2c(n1)n1c(cc3ccccc31)c(=O)n2C` [Compound I-14], the pIC50 at DMPK is 6.00 to 6.60; at NEK9, ≥ 7.30; on CLK, ≤ 5.30; against NEK6, 5.30 to 6.00; on NEK7, 6.60 to 7.30; on NEK2, 6.60 to 7.30.
For the compound `CCN1CCN(c2ccc(Nc3ncc4c(n3)n3c(cc5ccccc53)c(=O)n4C)c(OC)c2)CC1` [Compound I-15], the pIC50 against DMPK is 6.00 to 6.60; at NEK9, 6.60 to 7.30; against CLK, 6.00 to 6.60; against NEK6, 6.00 to 6.60; against NEK7, 6.00 to 6.60; at NEK2, ≥ 7.30.
For the compound `CCN1CCN(c2ccc(Nc3ncc4c(n3)n3c(cc5ccccc53)c(=O)n4C)cc2)CC1` [Compound I-16], the pIC50 against DMPK is 6.60 to 7.30; on NEK9, ≥ 7.30; on CLK, 6.60 to 7.30; against NEK6 it was 6.00 to 6.60; at NEK7, 6.00 to 6.60; against NEK2, ≥ 7.30.
For `CCOc1cc(N2CCC(O)CC2)ccc1Nc1ncc2c(n1)n1c(cc3ccccc31)c(=O)n2C` [Compound I-18], the pIC50 is ≤ 5.30 on DMPK; 6.00 to 6.60 at NEK9; ≤ 5.30 on CLK; 6.00 to 6.60 against NEK6; 6.00 to 6.60 against NEK7; 6.60 to 7.30 at NEK2.
For `CC(C)Oc1cc(N2CCC(O)CC2)ccc1Nc1ncc2c(n1)n1c(cc3ccccc31)c(=O)n2C` [Compound I-19], the pIC50 against DMPK was ≤ 5.30; against NEK9 it was ≤ 5.30; against CLK, ≤ 5.30; on NEK6, 5.30 to 6.00; against NEK7, 6.00 to 6.60; at NEK2 it was ≤ 5.30.
For `COc1cc(N2CCC(C(N)=O)CC2)ccc1Nc1ncc2c(n1)n1c(cc3ccccc31)c(=O)n2C` [Compound I-20], the pIC50 is 5.30 to 6.00 against DMPK; 6.60 to 7.30 on NEK9; 5.30 to 6.00 on CLK; 6.00 to 6.60 against NEK6; 6.60 to 7.30 against NEK7; 6.60 to 7.30 at NEK2.
For `Cn1c(=O)c2cc3ccccc3n2c2nc(Nc3cc(N4CCOCC4)cc(N4CCOCC4)c3)ncc21` [Compound I-21], the pIC50 on DMPK is 6.00 to 6.60; against NEK9, 6.60 to 7.30; against CLK, 6.00 to 6.60; on NEK6, 6.00 to 6.60; at NEK7, 6.00 to 6.60; at NEK2, ≥ 7.30.
For `Cn1c(=O)c2cc3ccccc3n2c2nc(Nc3ccc(N4CCOCC4)nc3)ncc21` [Compound I-22], the pIC50 against DMPK is 6.00 to 6.60; on NEK9, 6.60 to 7.30; on CLK, 6.00 to 6.60; against NEK6 it was 5.30 to 6.00; at NEK7, 6.00 to 6.60; at NEK2, 6.60 to 7.30.
As for `CN1CCN(C2CCN(c3ccc(Nc4ncc5c(n4)n4c(cc6ccccc64)c(=O)n5C)cn3)CC2)CC1` [Compound I-23], the pIC50 at DMPK is 6.60 to 7.30; against NEK9, ≥ 7.30; against CLK, 6.60 to 7.30; on NEK6 it was 6.00 to 6.60; on NEK7, 6.00 to 6.60; against NEK2, ≥ 7.30.
Take `CCN1CCN(c2ccc(Nc3ncc4c(n3)n3c(cc5ccccc53)c(=O)n4C)cc2C(F)(F)F)CC1` [Compound I-25]: the pIC50 on NEK9 is 6.60 to 7.30; against NEK2 it was ≥ 7.30.
On to `CCn1c(=O)c2cc3ccccc3n2c2nc(Nc3ccc(N4CCN(C)CC4)cc3)ncc21` [Compound I-26], for which the pIC50 against NEK9 and at NEK2 was 6.60 to 7.30 throughout.
With `CCn1c(=O)c2cc3ccccc3n2c2nc(Nc3ccc(N4CCN(C)CC4)c(C(F)(F)F)c3)ncc21` [Compound I-27], the negative logarithm of the IC50 (pIC50) against NEK9 and on NEK2 was 6.00 to 6.60 throughout.
On to `CCN1CCN(c2ccc(Nc3ncc4c(n3)N3c5ccccc5CC3C(=O)N4C)cc2)CC1` (stereo not drawn) [Compound I-28], for which the pIC50 against NEK9 was ≥ 7.30; at NEK2, 6.60 to 7.30.
Turning to `CN1C(=O)C2Cc3ccccc3N2c2nc(Nc3ccc(N4CCC(N5CCOCC5)CC4)cc3)ncc21` (stereo not drawn) [Compound I-29], the pIC50 against NEK9 and on NEK2 was ≥ 7.30 in each case.
`COc1cc(N2CCN(C)CC2)ccc1Nc1ncc2c(n1)N1c3ccccc3CC1C(=O)N2C` (stereo not drawn) [Compound I-30]: the results for the pIC50 against NEK9 and on NEK2 were 6.60 to 7.30 and 6.00 to 6.60, respectively.
Regarding `CN1C(=O)C2Cc3ccccc3N2c2nc(Nc3cc(N4CCOCC4)cc(N4CCOCC4)c3)ncc21` (stereo not drawn) [Compound I-31], the pIC50 on NEK9 and against NEK2 was 6.60 to 7.30 in each case.
For `CN1C(=O)C2Cc3ccccc3N2c2nc(Nc3ccc(N4CCOCC4)cc3)ncc21` (stereo not drawn) [Compound I-32], the pIC50 on NEK9 and on NEK2 was 6.60 to 7.30 each time.
In the case of `COc1cc(N2CCOCC2)ccc1Nc1ncc2c(n1)N1c3ccccc3CC1C(=O)N2C` (stereo not drawn) [Compound I-33], the figures for the negative logarithm of the IC50 (pIC50) at NEK9 and at NEK2 were 6.00 to 6.60 and 5.30 to 6.00, respectively.
